Legend:
[1] = target: T1, KRAS-G12C (C51S/C80L/C118S) (Homo sapiens, UniProt P01116, C118S/C51S/C80L/G12C); assay: SOS-catalyzed nucleotide exchange assay (Procedure A, TR-FRET); assay type: biochemical; settings: 60 min preincubation, SOS + GTP, read-out: KRAS G12C GNE IC50
T1 construct: N-terminal biotin-acceptor peptide […]
Outline: (§1)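 Preformed biotinylated RAS–Bodipy-GDP/Tb-streptavidin complex preincubated with compound 60 min at room temperature, then SOS plus GTP (3 mM final) added. Exchange times: G13D 30 min, G12C/D 60 min, G12V 90 min. Final RAS/SOS: G12C 3 nM/40 nM, G12D 1 nM/40 nM, G12V 1.25 nM/160 nM, G13D 1.25 nM/0 nM. TR-FRET 520/495 ratio, four-parameter fit.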

[2] = target: T2, KRAS-G12D (Homo sapiens, UniProt P01116, G12D); assay: as above; assay type: biochemical; settings: 60 min preincubation, SOS + GTP, read-out: KRAS G12D GNE IC50
T2 construct: N-terminal biotin-acceptor peptide […]
T2 sequence (P01116 with tags, fused parts or gaps isoform P01116-2 G12D): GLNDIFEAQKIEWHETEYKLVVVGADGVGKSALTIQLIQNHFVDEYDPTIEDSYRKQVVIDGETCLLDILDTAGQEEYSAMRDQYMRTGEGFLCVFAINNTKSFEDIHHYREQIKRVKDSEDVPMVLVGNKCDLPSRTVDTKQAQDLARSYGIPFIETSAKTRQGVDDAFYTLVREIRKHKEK
Outline: as §1

[3] = target: T3, KRAS-G12V (Homo sapiens, UniProt P01116, G12V); assay: as above; assay type: biochemical; settings: 60 min preincubation, SOS + GTP, read-out: KRAS G12V GNE IC50
T3 construct: N-terminal biotin-acceptor peptide […]
T3 sequence (P01116 with tags, fused parts or gaps isoform P01116-2 G12V): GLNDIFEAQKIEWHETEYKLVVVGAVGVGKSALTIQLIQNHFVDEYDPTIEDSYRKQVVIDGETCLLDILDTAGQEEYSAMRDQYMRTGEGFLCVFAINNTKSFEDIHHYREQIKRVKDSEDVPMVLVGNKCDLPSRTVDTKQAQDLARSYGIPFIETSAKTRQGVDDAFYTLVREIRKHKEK
Outline: as §1

[4] = target: T4, KRAS-G13D (Homo sapiens, UniProt P01116, G13D); assay: as above; assay type: biochemical; settings: 60 min preincubation, GTP, read-out: KRAS G13D GNE IC50
T4 construct: N-terminal biotin-acceptor peptide […]
T4 sequence (P01116 with tags, fused parts or gaps isoform P01116-2 G13D): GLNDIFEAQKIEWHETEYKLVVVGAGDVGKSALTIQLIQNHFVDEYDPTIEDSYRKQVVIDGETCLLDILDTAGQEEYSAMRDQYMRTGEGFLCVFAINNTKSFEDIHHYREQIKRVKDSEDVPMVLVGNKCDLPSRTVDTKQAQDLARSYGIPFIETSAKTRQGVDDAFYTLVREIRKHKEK
Outline: as §1

[5] = target: HRAS (Homo sapiens, UniProt P01112); assay: as above; assay type: biochemical; settings: 60 min preincubation, SOS + GTP, read-out: HRAS GNE IC50
HRAS, sequence (P01112 with tags, fused parts or gaps): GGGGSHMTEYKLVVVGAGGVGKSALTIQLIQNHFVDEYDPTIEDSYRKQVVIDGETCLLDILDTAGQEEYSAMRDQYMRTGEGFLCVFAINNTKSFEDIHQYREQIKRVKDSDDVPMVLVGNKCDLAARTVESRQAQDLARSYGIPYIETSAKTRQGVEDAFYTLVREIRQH
Outline: (§2)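 Biotinylated WT-sequence HRAS or NRAS (1.25 nM final) loaded with Bodipy-GDP plus Tb-streptavidin, preincubated 60 min with compound (10-point, 3-fold). Exchange started with human SOS (40 nM) and 3 mM GTP, 60 min at room temperature, pH 7.5 Mg buffer. TR-FRET 520/495 ratio normalised to DMSO and saturating inhibitor, four-parameter fit.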

[6] = target: NRAS (Homo sapiens, UniProt P01111); assay: as above; assay type: biochemical; settings: 60 min preincubation, SOS + GTP, read-out: NRAS GNE IC50
NRAS, sequence (P01111 with tags, fused parts or gaps): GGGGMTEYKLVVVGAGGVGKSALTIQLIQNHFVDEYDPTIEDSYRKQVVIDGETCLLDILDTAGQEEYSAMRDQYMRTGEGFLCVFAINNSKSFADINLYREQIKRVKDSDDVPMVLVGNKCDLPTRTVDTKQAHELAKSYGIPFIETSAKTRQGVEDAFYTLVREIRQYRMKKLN
Outline: as §2

[7] = test system: PANC08.13 cells (homozygous KRAS-G12D activating mutation); assay: Cellular phospho-ERK assay in G12D cell line; assay type: cell-based; settings: Homo sapiens, PANC-08-13, 2 hours compound incubation, ratio of p-ERK vs. total ERK, read-out: PANC 0813 pERK IC50
Outline: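 Cells (10,000-15,000/well) were seeded overnight, then treated for 2 h at 37 °C with a 10-point 1:3 titration from 30 μM final. Lysates were assayed by AlphaLISA SureFire Ultra multiplex, with the p-ERK/total-ERK ratio as read-out; IC50 came from a 4-parameter logistic fit.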

[8] = test system: SW620 cells (homozygous KRAS-G12V activating mutation); assay: Cellular phospho-ERK assay in G12V cell line; assay type: cell-based; settings: Homo sapiens, SW-620, 2 hours compound incubation, ratio of p-ERK vs. total ERK, read-out: SW620 pERK IC50
Protocol: Procedure for Cellular Phospho-ERK Assay in G12D and G12V Cell Lines
PANC08.13 cells (ATCC® CRL-2551™), containing homozygous KRAS-G12D activating mutation, were cultured in growth medium made of RPMI1640-GlutaMAX™—I (ThermoFisher Scientific 61870) containing 15% heat inactivated fetal bovine serum (ThermoFisher Scientific 10091148)). SW620 cells (ATCC® […]), containing homozygous KRAS-G12V activating mutation, were cultured in growth medium that contains RPMI 1640-GlutaMAX™—I (ThermoFisher Scientific 61870) containing 10% heat inactivated fetal bovine serum (ThermoFisher Scientific 10091148).
Cells for the assay were harvested in growth medium after TrypLE (ThermoFisher scientific 12604021) digestion and were seeded in a 384-well collagen coated cell culture plate (Corning 356702) at a density of 10,000-15,000 cells/20 uL/well, and incubated at 37° C., 5% CO2 overnight. The compound (with 10 mM stock concentration) dose-response titrations were prepared [30 μM final ERK detection assay concentration and 1:3 dilutions, 10-point dose response] and appropriate amounts (270 nL) of test compounds were dispensed in a 384-well intermediate plate using an Echo 550 liquid handler. 30 uL/well of RPMI medium 1640-GlutaMAX™—I was added to the intermediate plate and the contents of the intermediate plate (10 uL/well) were then transferred to the 384-well collagen coated cell culture plate, which was incubated at 37° C., 5% CO2 for 2 hours. After removal of medium from the collagen coated cell culture plate, cells were lysed in lysis buffer from Alpha SureFire® Ultra™ Multiplex p-ERK and total ERK assay kit (PerkinElmer MPSU-PTERK) containing Halt™ Protease and Phosphatase inhibitor cocktail (ThermoFisher Scientific 78446) at room temperature with constant shaking at 300 rpm for 30 minutes. The cell lysates were then transferred to an OptiPlate-384 plate (PerkinElmer 6005620), and the phosphorylation of ERK (p-ERK) and total ERK levels were detected by Alpha SureFire® Ultra™ Multiplex p-EEK kit and total ERK assay kit (PerkinElmer MPSU-PTERK) following the manufacturer's protocol. Assay plates were read on a EnVision Multimode Plate Reader (PerkinElmer), and the ratio of p-ERK vs. total ERK in each well was used as the final readout. Dose response curves were analyzed using a 4-parameter logistic model to calculate IC50 values using Spotfire software.

T1 sequence (P01116 with tags, fused parts or gaps isoform P01116-2 G12C/C51S/C80L/C118S): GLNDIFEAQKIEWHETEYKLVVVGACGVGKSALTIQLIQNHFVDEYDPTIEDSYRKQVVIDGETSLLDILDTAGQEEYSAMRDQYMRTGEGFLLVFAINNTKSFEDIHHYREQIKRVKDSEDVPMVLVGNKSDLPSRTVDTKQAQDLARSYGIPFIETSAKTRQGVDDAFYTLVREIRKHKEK

Cc1cc(N)nc(-c2c(Cl)cc3c(N4CCCCOCC4)nc(OC[C@@]45CCCN4C[C@H](F)C5)nc3c2F)c1C(F)(F)F [Ex. 39, 6-(6-chloro-8-fluoro-2-(((2R,7aS)-2-fluorotetrahydro-1H-pyrrolizin-7a(5H)-yl)methoxy)-4-(1,4-oxazocan-4-yl)quinazolin-7-yl)-4-methyl-5-(trifluoromethyl)pyridin-2-amine]
IC50 [1]: 63.1 nM
IC50 [2]: 515 nM
IC50 [3]: 32.2 nM
IC50 [4]: 145 nM
IC50 [5]: > 11100 nM
IC50 [6]: > 11100 nM
IC50 [7]: 1320 nM
IC50 [8]: 422 nM

Cc1cc2[nH]ncc2c(-c2c(F)cc3c(N4CCCOCC4)nc(OC[C@@]45CCCN4C[C@H](F)C5)nc3c2F)c1C(F)(F)F [Ex. 44, 4-(6,8-difluoro-2-(((2R,7aS)-2-fluorotetrahydro-1H-pyrrolizin-7a(5H)-yl)methoxy)-7-(6-methyl-5-(trifluoromethyl)-1H-indazol-4-yl)quinazolin-4-yl)-1,4-oxazepane]
IC50 [1]: 96.3 nM
IC50 [2]: 505 nM
IC50 [3]: 235 nM
IC50 [4]: 365 nM
IC50 [5]: > 11100 nM
IC50 [6]: > 11100 nM
IC50 [7]: 1300 nM
IC50 [8]: 901 nM

CC1COCCCN1c1nc(OC[C@@]23CCCN2C[C@H](F)C3)nc2c(F)c(-c3ccc(F)c4sc(N)c(C#N)c34)c(Cl)cc12 (stereo partly drawn) [compound 5, 2-amino-4-(6-chloro-8-fluoro-2-(((2R,7aS)-2-fluorotetrahydro-1H-pyrrolizin-7a(5H)-yl)methoxy)-4-(3-methyl-1,4-oxazepan-4-yl)quinazolin-7-yl)-7-fluorobenzo[b]thio-phene-3-carbonitrile]
IC50 [1]: 18 nM
IC50 [2]: 15.2 nM
IC50 [3]: 6.15 nM
IC50 [4]: 13.4 nM
IC50 [5]: > 11100 nM
IC50 [6]: > 11100 nM
IC50 [7]: 123 nM
IC50 [8]: 120 nM

C[C@@H]1CCOCCN1c1nc(OC[C@@]23CCCN2C[C@H](F)C3)nc2c(F)c(-c3ccc(F)c4sc(N)c(C#N)c34)c(Cl)cc12 [compound 7, 2-amino-4-(6-chloro-8-fluoro-2-(((2R,7aS)-2-fluorotetrahydro-1H-pyrrolizin-7a(5H)-yl)methoxy)-4-((R)-5-methyl-1,4-oxazepan-4-yl)quinazolin-7-yl)-7-fluorobenzo[b]thio-phene-3-carbonitrile]
IC50 [1]: 13.1 nM
IC50 [2]: 9.18 nM
IC50 [3]: 6 nM
IC50 [4]: 8.55 nM
IC50 [5]: > 11100 nM
IC50 [6]: > 11100 nM
IC50 [7]: 192 nM
IC50 [8]: 67.4 nM

CC1COCCN(c2nc(OC[C@@]34CCCN3C[C@H](F)C4)nc3c(F)c(-c4ccc(F)c5sc(N)c(C#N)c45)c(Cl)cc23)C1 (stereo partly drawn) [compound 8, 2-amino-4-(6-chloro-8-fluoro-2-(((2R,7aS)-2-fluorotetrahydro-1H-pyrrolizin-7a(5H)-yl)methoxy)-4-(6-methyl-1,4-oxazepan-4-yl)quinazolin-7-yl)-7-fluorobenzo[b]thio-phene-3-carbonitrile]
IC50 [1]: 20.8 nM
IC50 [2]: 9.92 nM
IC50 [3]: 7.59 nM
IC50 [4]: 12.8 nM
IC50 [5]: > 11100 nM
IC50 [6]: > 11100 nM
IC50 [7]: 138 nM
IC50 [8]: 104 nM

CC1CN(c2nc(OC[C@@]34CCCN3C[C@H](F)C4)nc3c(F)c(-c4ccc(F)c5sc(N)c(C#N)c45)c(Cl)cc23)CCCO1 (stereo partly drawn) [compound 9, 2-amino-4-(6-chloro-8-fluoro-2-(((2R,7aS)-2-fluorotetrahydro-1H-pyrrolizin-7a(5H)-yl)methoxy)-4-(2-methyl-1,4-oxazepan-4-yl)quinazolin-7-yl)-7-fluorobenzo[b]thio-phene-3-carbonitrile]
IC50 [1]: 23.1 nM
IC50 [2]: 24.4 nM
IC50 [3]: 6.17 nM
IC50 [4]: 8.74 nM
IC50 [5]: > 11100 nM
IC50 [6]: > 11100 nM
IC50 [7]: 155 nM
IC50 [8]: 101 nM

CC1CCN(c2nc(OC[C@@]34CCCN3C[C@H](F)C4)nc3c(F)c(-c4ccc(F)c5sc(N)c(C#N)c45)c(Cl)cc23)CCO1 (stereo partly drawn) [compound 10, 2-amino-4-(6-chloro-8-fluoro-2-(((2R,7aS)-2-fluorotetrahydro-1H-pyrrolizin-7a(5H)-yl)methoxy)-4-(7-methyl-1,4-oxazepan-4-yl)quinazolin-7-yl)-7-fluorobenzo[b]thio-phene-3-carbonitrile]
IC50 [1]: 47.3 nM
IC50 [2]: 700 nM
IC50 [3]: 41.7 nM
IC50 [4]: 110 nM
IC50 [5]: > 11100 nM
IC50 [6]: > 11100 nM
IC50 [7]: 2600 nM
IC50 [8]: 538 nM

N#Cc1c(N)sc2c(F)ccc(-c3c(Cl)cc4c(N5CCOCC(F)C5)nc(OC[C@@]56CCCN5C[C@H](F)C6)nc4c3F)c12 (stereo partly drawn) [compound 11, 2-amino-4-(6-chloro-8-fluoro-4-(6-fluoro-1,4-oxazepan-4-yl)-2-(((2R,7aS)-2-fluorotetrahydro-1H-pyrrolizin-7a(5H)-yl)methoxy)quinazo-lin-7-yl)-7-fluorobenzo[b]thio-phene-3-carbonitrile]
IC50 [1]: 18.2 nM
IC50 [2]: 8.27 nM
IC50 [3]: 6.4 nM
IC50 [4]: 6.85 nM
IC50 [5]: > 11100 nM
IC50 [6]: > 11100 nM
IC50 [7]: 39.9 nM
IC50 [8]: 21.9 nM

N#Cc1c(N)sc2c(F)ccc(-c3c(Cl)cc4c(N5CCOCC(F)(F)C5)nc(OC[C@@]56CCCN5C[C@H](F)C6)nc4c3F)c12 [compound 12, 2-amino-4-(6-chloro-4-(6,6-difluoro-1,4-oxazepan-4-yl)-8-fluoro-2-(((2R,7aS)-2-fluorotetrahydro-1H-pyrrolizin-7a(5H)-yl)methoxy)quinazo-lin-7-yl)-7-fluorobenzo[b]thio-phene-3-carbonitrile]
IC50 [1]: 19.5 nM
IC50 [2]: 34.2 nM
IC50 [3]: 11.6 nM
IC50 [4]: 12.9 nM
IC50 [5]: > 11100 nM
IC50 [6]: > 11100 nM
IC50 [7]: 75.4 nM
IC50 [8]: 32.9 nM

CC1(F)COCCN(c2nc(OC[C@@]34CCCN3C[C@H](F)C4)nc3c(F)c(-c4ccc(F)c5sc(N)c(C#N)c45)c(Cl)cc23)C1 (stereo partly drawn) [compound 13, 2-amino-4-(6-chloro-8-fluoro-4-(6-fluoro-6-methyl-1,4-oxazepan-4-yl)-2-(((2R,7aS)-2-fluorotetrahydro-1H-pyrrolizin-7a(5H)-yl)methoxy)quinazo-lin-7-yl)-7-fluorobenzo[b]thio-phene-3-carbonitrile]
IC50 [1]: 32.2 nM
IC50 [2]: 46.7 nM
IC50 [3]: 10.4 nM
IC50 [4]: 21.9 nM
IC50 [5]: > 11100 nM
IC50 [6]: > 11100 nM
IC50 [7]: 208 nM
IC50 [8]: 152 nM

Source: US20260083750A1, “SMALL MOLECULE INHIBITORS OF KRAS PROTEINS” (MERCK SHARP & DOHME LLC, priority 2022, published 2026)
